Test results from patent publication US20260258035A1, “FIVE-MEMBERED AND SIX-MEMBERED NITROGEN-CONTAINING COMPOUND, AND INTERMEDIATE, PREPARATION METHOD AND USE THEREOF” (HANGZHOU SYNRX THERAPEUTICS BIOMEDICAL TECHNOLOGY CO., LTD., priority 2022, published 2026).
Like-named read-outs stand apart in the source and are kept apart here.

Experiments:
[1] = test system: HCC1806; assay: Cell viability assay (CellTiter-Glo); type: cell-based, Human; conditions: HCC1806, 7 days, CellTiter-Glo, read-out: IC50 (nM) in cell viability assay
[2] = biological target: PARG (Homo sapiens, UniProt Q86W56); assay: Biochemical assay (PARG, TFMU-ADPr substrate)
PARG, sequence (Q86W56 whole entry): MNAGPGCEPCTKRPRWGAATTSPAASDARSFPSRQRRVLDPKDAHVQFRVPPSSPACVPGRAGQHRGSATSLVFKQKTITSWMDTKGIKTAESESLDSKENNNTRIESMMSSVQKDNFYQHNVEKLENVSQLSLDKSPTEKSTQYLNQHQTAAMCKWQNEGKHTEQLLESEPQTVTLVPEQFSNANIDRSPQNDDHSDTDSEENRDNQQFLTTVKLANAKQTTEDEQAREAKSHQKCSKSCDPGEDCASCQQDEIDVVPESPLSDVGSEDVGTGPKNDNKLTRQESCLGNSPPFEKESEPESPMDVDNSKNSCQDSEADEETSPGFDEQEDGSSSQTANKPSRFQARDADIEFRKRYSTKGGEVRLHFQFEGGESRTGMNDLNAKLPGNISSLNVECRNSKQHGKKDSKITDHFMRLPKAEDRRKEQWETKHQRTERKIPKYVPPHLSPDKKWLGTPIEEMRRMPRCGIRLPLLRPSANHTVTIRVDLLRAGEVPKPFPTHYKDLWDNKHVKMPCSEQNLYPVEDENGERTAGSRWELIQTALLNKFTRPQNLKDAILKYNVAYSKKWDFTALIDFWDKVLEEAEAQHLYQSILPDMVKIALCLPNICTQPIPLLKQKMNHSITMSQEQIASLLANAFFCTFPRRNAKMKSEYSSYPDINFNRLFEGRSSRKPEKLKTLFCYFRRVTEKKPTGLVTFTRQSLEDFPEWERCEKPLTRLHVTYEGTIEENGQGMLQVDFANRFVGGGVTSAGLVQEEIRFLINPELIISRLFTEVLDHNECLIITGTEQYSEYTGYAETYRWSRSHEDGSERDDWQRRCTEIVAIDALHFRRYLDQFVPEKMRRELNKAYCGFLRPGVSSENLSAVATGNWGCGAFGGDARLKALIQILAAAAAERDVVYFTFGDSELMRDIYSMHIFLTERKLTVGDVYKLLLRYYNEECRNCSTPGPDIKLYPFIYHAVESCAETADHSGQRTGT

[3] = 4 nM PARG, 66.2 uM TFMU-ADPr, 3 min at room temperature

Row | SMILES | IC50 [1] | IC50 ([1]; Homo sapiens, HCC1806, 168 h) | IC50 [2, 3] | IC50 ([2]; PARG, TFMU-ADPr substrate)
1 | CC(C)C(=O)N1CCN(c2cc(S(=O)(=O)NC3(CF)COC3)cn3c(-c4nnc(C(F)F)s4)nnc23)CC1 [Example 106, 3-(5-(difluoromethyl)-1,3,4-thiadiazol-2-yl)-N-(3-(fluoromethyl)oxetan-3-yl)-8-(4-isobutyrylpiperazin-1-yl)-[1,2,4]triazolo[4,3-a]pyridine-6-sulfonamide] | 5000 nM | 5000 to 30000 nM | < 100 nM | 28.2 nM
2 | CC(C)(O)C1CCN(c2cc(S(=O)(=O)NC3(CF)CC3)cn3c(-c4nnc(C(F)F)s4)nnc23)CC1 [Example 109, 3-(5-(difluoromethyl)-1,3,4-thiadiazol-2-yl)-N-(1-(fluoromethyl)cyclopropyl)-8-(4-(2-hydroxypropan-2-yl)piperidin-1-yl)-[1,2,4]triazolo[4,3-a]pyridine-6-sulfonamide] | 7000 nM | 5000 to 30000 nM | < 100 nM | 30.5 nM
3 | CC(C)C(=O)N1CCN(c2cc(S(=O)(=O)NC3(C)CC3)cn3c(-c4nnc(C(F)(F)F)s4)nnc23)C[C@H]1C [Example 119, (R)-8-(4-isobutyryl-3-methylpiperazin-1-yl)-N-(1-methylcyclopropyl)-3-(5-(trifluoromethyl)-1,3,4-thiadiazol-2-yl)-[1,2,4]triazolo[4,3-a]pyridine-6-sulfonamide] | 431 nM | < 500 nM | < 100 nM | 41.7 nM
4 | CC(C)C(=O)N1CCN(c2cc(S(=O)(=O)NC3CC3)cn3c(-c4nnc(C(F)(F)F)s4)nc(Cl)c23)CC1 [Example 121, 1-chloro-N-cyclopropyl-8-(4-isobutyrylpiperazin-1-yl)-3-(5-(trifluoromethyl)-1,3,4-thiadiazol-2-yl)imidazo[1,5-a]pyridine-6-sulfonamide] | – | 2590 nM | < 100 nM | 60.1 nM
5 | C[C@H]1CN(c2cc(S(=O)(=O)NC3(C)COC3)cn3c(-c4nnc(C(F)(F)F)s4)nc(Cl)c23)C[C@H](C)N1 [Example 125, 1-chloro-8-((3S,5S)-3,5-dimethylpiperazin-1-yl)-N-(3-methyloxetan-3-yl)-3-(5-(trifluoromethyl)-1,3,4-thiadiazol-2-yl)imidazo[1,5-a]pyridine-6-sulfonamide] | – | 518 nM | – | 31.2 nM
6 | C[C@H]1CN(c2cc(S(=O)(=O)NC3(C)COC3)cn3c(-c4nnc(C(F)F)s4)nc(Cl)c23)C[C@H](C)N1 [Example 126, 1-chloro-3-(5-(difluoromethyl)-1,3,4-thiadiazol-2-yl)-8-((3S,5S)-3,5-dimethylpiperazin-1-yl)-N-(3-methyloxetan-3-yl)imidazo[1,5-a]pyridine-6-sulfonamide] | – | 602 nM | – | 5.34 nM
7 | COCC1CN(c2cc(S(=O)(=O)NC3(C)COC3)cn3c(-c4nnc(C(F)F)s4)nc(Cl)c23)CCN1 (stereo not shown) [Example 127, 1-chloro-3-(5-(difluoromethyl)-1,3,4-thiadiazol-2-yl)-8-(3-(methoxymethyl)piperazin-1-yl)-N-(3-methyloxetan-3-yl)imidazo[1,5-a]pyridine-6-sulfonamide] | – | 95 nM | – | 1.01 nM
8 | CN(C)C(=O)N1CCN(c2cc(S(=O)(=O)NC3(C)COC3)cn3c(-c4nnc(C(F)F)s4)nc(Cl)c23)CC1 [Example 128, 4-(1-chloro-3-(5-(difluoromethyl)-1,3,4-thiadiazol-2-yl)-6-(N-(3-methyloxetan-3-yl)sulfamoyl)imidazo[1,5-a]pyridin-8-yl)-N,N-dimethylpiperazine-1-carboxamide] | – | 28 nM | – | 0.99 nM
9 | [2H]C([2H])([2H])OC1(C(=O)N2CCN(c3cc(S(=O)(=O)NC4(C)COC4)cn4c(-c5nnc(C(F)(F)F)s5)nc(Cl)c34)CC2)CC1 [Example 129, 1-chloro-8-(4-(1-(methoxy-d3)cyclopropane-1-carbonyl)piperazin-1-yl)-N-(3-methyloxetan-3-yl)-3-(5-(trifluoromethyl)-1,3,4-thiadiazol-2-yl)imidazo[1,5-a]pyridine-6-sulfonamide] | – | 12.7 nM | – | 0.16 nM
